Experimental findings from ChEMBL document CHEMBL1144622, “Novel malonamide derivatives as potent kappa opioid receptor agonists” (Bioorg Med Chem Lett, 2007) are described below.

Experiment [1] deals with Opioid receptors; delta & kappa (Homo sapiens) (UniProt P41145+P41143). Briefly: Selectivity for human kappa opioid receptor over human delta opioid receptor. It counts as functional.
The target of experiment [2] is Opioid receptors; mu & kappa (Homo sapiens) (UniProt P41145+P35372). Nature of the experiment: Selectivity for human kappa opioid receptor over human mu opioid receptor. It counts as functional.
Sequence of Opioid receptors; mu & kappa (Homo sapiens) (P35372 whole entry, looked up): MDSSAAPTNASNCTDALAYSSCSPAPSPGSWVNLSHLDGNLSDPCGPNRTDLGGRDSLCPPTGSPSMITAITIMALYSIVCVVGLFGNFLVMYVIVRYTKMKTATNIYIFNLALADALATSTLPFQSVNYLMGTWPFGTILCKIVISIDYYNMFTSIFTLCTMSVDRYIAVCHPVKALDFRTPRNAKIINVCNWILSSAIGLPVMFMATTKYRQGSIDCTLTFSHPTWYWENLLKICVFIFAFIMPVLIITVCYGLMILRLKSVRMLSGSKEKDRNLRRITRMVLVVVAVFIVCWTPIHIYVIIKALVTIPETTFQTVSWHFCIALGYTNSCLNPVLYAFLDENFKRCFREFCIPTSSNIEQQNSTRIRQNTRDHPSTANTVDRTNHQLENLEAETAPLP
Sequence of Opioid receptors; mu & kappa (Homo sapiens) (P41145 whole entry, looked up): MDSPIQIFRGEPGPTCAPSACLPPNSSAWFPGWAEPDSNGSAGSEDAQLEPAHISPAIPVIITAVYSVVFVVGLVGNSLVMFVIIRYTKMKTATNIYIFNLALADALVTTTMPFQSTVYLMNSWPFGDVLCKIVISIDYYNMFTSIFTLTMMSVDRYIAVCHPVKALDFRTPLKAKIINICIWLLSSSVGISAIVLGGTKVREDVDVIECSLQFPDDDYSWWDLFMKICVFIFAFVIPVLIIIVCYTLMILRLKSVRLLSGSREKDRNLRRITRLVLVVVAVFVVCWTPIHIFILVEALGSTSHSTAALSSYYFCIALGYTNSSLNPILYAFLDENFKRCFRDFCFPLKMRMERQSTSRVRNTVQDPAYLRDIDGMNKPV
The target in experiment [3] is Kappa-type opioid receptor (Homo sapiens, UniProt P41145). Briefly: Agonist activity at human kappa opioid receptor by [35S]GTP-gamma-S binding assay. It counts as functional.
Sequence of Kappa-type opioid receptor (P41145 whole entry): as the sequence (P41145 whole entry, looked up) above
A further experiment addresses Cytochrome P450 2D6 (Homo sapiens, UniProt P10635). Briefly: Inhibition of CYP2D6. It counts as ADME.
A further experiment concerns Rattus norvegicus. Briefly: Antinociceptive activity in rat at 300 ug, sc by formalin-induced flinching assay. It counts as functional.
In the next experiment the test system is Mus musculus. Briefly: Analgesic activity in sc dosed mouse assessed as inhibition of acetic acid-induced writhing. The class given is functional.

Sequence of Opioid receptors; delta & kappa (Homo sapiens) (P41143 whole entry, looked up): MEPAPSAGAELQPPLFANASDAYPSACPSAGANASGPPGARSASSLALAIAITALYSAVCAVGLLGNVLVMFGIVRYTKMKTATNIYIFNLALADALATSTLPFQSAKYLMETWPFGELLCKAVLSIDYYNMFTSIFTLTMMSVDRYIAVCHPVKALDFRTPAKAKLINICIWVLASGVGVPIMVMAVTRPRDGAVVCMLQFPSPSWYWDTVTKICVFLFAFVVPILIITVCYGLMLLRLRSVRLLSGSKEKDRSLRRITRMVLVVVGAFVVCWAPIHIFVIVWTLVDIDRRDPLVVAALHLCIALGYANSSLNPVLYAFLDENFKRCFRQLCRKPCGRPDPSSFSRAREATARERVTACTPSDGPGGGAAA
Sequence of Opioid receptors; delta & kappa (Homo sapiens) (P41145 whole entry, looked up): as the sequence (P41145 whole entry, looked up) above
Sequence of Cytochrome P450 2D6 (P10635 whole entry): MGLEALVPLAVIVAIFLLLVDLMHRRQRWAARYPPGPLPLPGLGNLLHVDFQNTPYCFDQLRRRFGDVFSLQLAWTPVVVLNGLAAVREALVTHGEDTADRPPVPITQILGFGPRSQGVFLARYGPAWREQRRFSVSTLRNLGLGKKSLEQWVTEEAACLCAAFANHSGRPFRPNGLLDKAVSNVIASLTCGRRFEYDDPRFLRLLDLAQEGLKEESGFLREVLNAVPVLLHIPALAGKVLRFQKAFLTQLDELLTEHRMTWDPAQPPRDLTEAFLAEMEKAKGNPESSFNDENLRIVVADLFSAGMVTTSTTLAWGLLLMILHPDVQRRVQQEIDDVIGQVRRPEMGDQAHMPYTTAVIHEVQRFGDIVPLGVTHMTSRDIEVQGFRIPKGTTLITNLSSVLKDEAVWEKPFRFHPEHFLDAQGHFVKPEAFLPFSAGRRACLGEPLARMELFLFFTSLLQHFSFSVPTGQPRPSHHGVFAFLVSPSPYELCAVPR

Consider `CN(C(=O)CC(=O)Nc1cccnc1)[C@H](CN1CC[C@H](O)C1)c1ccccc1`, for which the Ratio Ki was 15 in experiment [1] and 450 in experiment [2]. Further, the Ki in experiment [3] was 1.3 nM. Besides, on Cytochrome P450 2D6, the IC50 was more than 10000 nM.

Turning to `CN(C(=O)CC(=O)NCc1ccccc1)[C@H](CN1CC[C@H](O)C1)c1ccccc1`, the values for the Ratio Ki in experiment [1] and in experiment [2] were 40 and 120, respectively. Further, the affinity in experiment [3], expressed as Ki, was 15 nM. Further, the IC50 at Cytochrome P450 2D6 worked out at 3200 nM.

On to `CN(C(=O)CCC(=O)Nc1nccs1)[C@H](CN1CC[C@H](O)C1)c1ccccc1`, for which the Ratio Ki in experiment [1] amounted to 14. For the same compound, the inhibitory constant (Ki) in experiment [3] was 23 nM. Besides, the IC50 against Cytochrome P450 2D6 turned out to be 3400 nM.

`CN(C(=O)CC(=O)Nc1ccc(NS(C)(=O)=O)cc1)[C@H](CN1CC[C@H](O)C1)c1ccccc1`: the values for the Ratio Ki in experiment [1] and in experiment [2] were 39 and 4.8, respectively. Also, the Ki in experiment [3] is 29 nM. The compound also yielded an IC50 against Cytochrome P450 2D6 of 10000 nM.

Turning to `CN(C(=O)CCC(=O)Nc1ccccc1)[C@H](CN1CC[C@H](O)C1)c1ccccc1`, the Ratio Ki in experiment [1] is 220. For the same compound, the Ki in experiment [3] was 6 nM. The compound further returned an IC50 at Cytochrome P450 2D6 of 8600 nM.

Turning to `CN(C(=O)CC(=O)Nc1nccs1)[C@H](CN1CC[C@H](O)C1)c1ccccc1`, the Ratio Ki in experiment [1] came out at 71; in experiment [2], 180. In addition, the Ki in experiment [3] is 0.53 nM. In addition, on Cytochrome P450 2D6, the IC50 amounted to 700 nM.

With `CN(C(=O)CC(=O)Nc1ccccc1)[C@H](CN1CC[C@H](O)C1)c1ccccc1`, the Ratio Ki in experiment [1] was determined as 25; in experiment [2], 120. In the experiment with Rattus norvegicus, this compound showed an Activity of 93%. Moreover, in experiment [3], affinity was put at a Ki of 0.27 nM. Moreover, the ED50 in the experiment on Mus musculus stood at 0.03 mg/kg. Half-maximal inhibition on Cytochrome P450 2D6 (IC50) was put at 5300 nM.

In the case of `CN(C(=O)CCC(=O)Nc1cccnc1)[C@H](CN1CC[C@H](O)C1)c1ccccc1`, in experiment [1], the Ratio Ki is 5. Also, the Ki in experiment [3] was 280 nM. For the same compound, at Cytochrome P450 2D6, the IC50 was more than 10000 nM.

As for `CN(C(=O)NCC(=O)Nc1ccccc1)[C@H](CN1CC[C@H](O)C1)c1ccccc1`, the Ratio Ki in experiment [1] came to 8.7; in experiment [2], 110. This compound also had a Ki in experiment [3] of 6.5 nM. The compound also had an IC50 against Cytochrome P450 2D6 of 5100 nM.

In the case of `CN(C(=O)CC(=O)Nc1ccc(CNS(C)(=O)=O)cc1)[C@H](CN1CC[C@H](O)C1)c1ccccc1`, the results for the Ratio Ki in experiment [1] and in experiment [2] were 10 and 4.3, respectively. The affinity in experiment [3] corresponds to a Ki of 96 nM. On Cytochrome P450 2D6, this compound had an IC50 of 5400 nM.
